Usually IC50 stands for the concentration that gives 50% inhibition.

The values below come from ChEMBL document CHEMBL3886450, “Tricyclic indole derivatives useful endothelial lipase inhibitors” (2015).

For the test, the target named is T1, Endothelial lipase (Homo sapiens, UniProt Q9Y5X9).
T1 sequence (Q9Y5X9 whole entry): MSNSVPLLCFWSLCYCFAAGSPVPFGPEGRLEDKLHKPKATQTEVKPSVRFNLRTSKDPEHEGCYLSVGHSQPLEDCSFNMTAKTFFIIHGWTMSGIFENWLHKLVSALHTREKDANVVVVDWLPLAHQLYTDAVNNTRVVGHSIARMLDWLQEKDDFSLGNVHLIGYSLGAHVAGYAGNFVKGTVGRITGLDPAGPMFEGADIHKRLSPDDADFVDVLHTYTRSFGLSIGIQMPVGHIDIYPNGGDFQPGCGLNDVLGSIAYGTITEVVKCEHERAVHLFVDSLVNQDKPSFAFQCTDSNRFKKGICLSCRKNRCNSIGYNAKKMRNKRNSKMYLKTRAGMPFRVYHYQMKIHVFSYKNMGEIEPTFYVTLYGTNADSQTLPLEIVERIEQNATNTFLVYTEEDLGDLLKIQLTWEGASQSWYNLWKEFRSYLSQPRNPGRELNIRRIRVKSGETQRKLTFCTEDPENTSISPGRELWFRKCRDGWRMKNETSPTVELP
As to the kind of experiment: Endothelial Lipase Assay: To assay for cell surface lipase activity, cells expressing human endothelial lipase (EL) or LPL were plated in CellBIND® 384-well plates (Corning, Lowell, Mass.) in 25 μL serum free medium at a density of 2000 cells/well. After 18-24 hours incubation at 37° C., the medium was removed and replaced with 15 μL assay buffer [Hank's Buffered Saline Solution with 25 mM HEPES pH 7.2] and 15 μL PLA1 substrate for a final concentration of 10 μM using a Multidrop reagent dispenser. Fluorescence signal was monitored for 30 min at 37° C. on a Safire II plate reader in kinetic mode (60 cycles, kinetic interval: 30 seconds) with an excitation wavelength of 490 nm and an emission wavelength of 515 nm. It is filed as cell-based.

The molecule `NS(=O)(=O)N1CCn2c(CCc3ccccc3)c(C(F)(F)F)c3cccc(c32)C1` displayed an IC50 of 68 nM.
For `CC(CC(=O)N1CCn2c(CCc3ccccc3)c(C(F)(F)F)c3cccc(c32)C1)C(F)(F)F` (configuration not stated) the value was 101 nM.
